Assay results: US11319317B2, “(Hetero)arylamide compound for inhibiting protein kinase activity” (Shenzhen TargetRx, Inc., priority 2017, dated 2022)
Where two headings read alike, the source gives them in different places.

Tests used:
[1] = Pharmacokinetic experiment in rats; assay type: in vivo, Sprague-Dawley rats; parameters: Cl pred: unit not given here; details: rat; for F (oral availability): PO 20 mg/kg vs IV 2 mg/kg; for MRT inf: read-out: MRTINF pred
Description: Rats were fed with a standard diet and water. Fasting began 16 hours before the test. The drugs were dissolved in PEG400 and dimethyl sulfoxide. Blood was collected from the eyelids at a time point of 0.083 hour, 0.25 hour, 0.5 hour, 1 hour, 2 hours, 4 hours, 6 hours, 8 hours, 12 hours, and 24 hours after administration. Rats were briefly anesthetized after inhalation of ether, and 300 μL of blood samples were collected from the eyelids to test tubes. There was 30 μL of 1% heparin salt solution in the test tube. […] After the blood sample was collected at the last time point, rats were anesthetized with ether and sacrificed. Immediately after the collection, blood samples were sufficiently mixed by gently inverting the tube at least 5 times, and were placed on ice. […] Plasma was stored at −80° C. prior to analysis. The concentration of the compounds disclosed herein in plasma was determined by LC-MS/MS. Pharmacokinetic parameters were calculated based on drug concentrations in plasma of each animal at different time points.

CML = details: combined with nilotinib; cited from earlier work
Ba/F3 parent cells = test: Cytotoxicity experiment (CellTiter-Glo), Ba/F3 parent cells; assay type: cell-based; details: Ba/F3 parental cells with 8 ng/ml IL-3, 3 days incubation
Description: 1. […] The cell plates were placed in carbon dioxide culture and incubated overnight.
2. Preparation of test compounds: The test compounds were dissolved in DMSO and subjected to a 3.16-fold gradient dilution in triplicate, 9 concentrations were obtained, starting from the concentration of 10 μM.
3. Treatment of Cells with compounds: Compounds at various concentrations were transferred to cell plates. The cell plates were incubated in a carbon dioxide incubator for 3 days.
4. Detection: CellTiter-Glo4 reagent was added to the cell plates, which were incubated for 30 minutes at room temperature to stabilize the luminescence signal. Readings were performed using a PerkinElmer Envision multi-label analyzer.

Ebola virus = details: in vitro; cited from earlier work
[2] = male, Sprague-Dawley, plasma, IV 2 mg/kg single dose
[3] = male, Sprague-Dawley, plasma, PO 20 mg/kg single dose

## O=C(Nc1ccc(OC(F)(F)Cl)cc1)c1cnc(N2CC[C@@H](O)C2)c(-c2ccn[nH]2)c1 [ABL-001, (R)—N-(4-(chlorodifluoromethoxy)phenyl)-6-(3-hydroxypyrrolidin-1-yl)-5-(1H-pyrazol-5-yl)nicotinamide, reference compound]
[1]
  F (oral availability): 19.86%
CML
  eradication of CML in a mouse model: effective in eradicating CML

## O=C(Nc1ccc(OC(F)(F)Cl)cc1)c1cnc(N2CC[C@@H](O)C2)c(-c2ccsn2)c1 [Example 1, (R)-6-(3-hydroxypyrrolidin-1-yl)-5-(isothiazol-3-yl)-N-(4-(chlorodifluoromethoxy)phenyl) nicotinamide]
Ba/F3 parent cells; Mus musculus, BaF3, 72 h
  IC50: > 1 µM

## O=C(Nc1ccc(OC(F)(F)Cl)cc1)c1cnc(N2CC[C@@H](O)C2)c(-c2cnsc2)c1 [Example 2, (R)-6-(3-hydroxypyrrolidin-1-yl)-5-(isothiazol-4-yl)-N-(4-(chlorodifluoromethoxy)phenyl) nicotinamide]
Ba/F3 parent cells; Mus musculus, BaF3, 72 h
  IC50: > 1 µM
[1]; [2]
  AUC(0-t): 5450 ng·h/mL
  Cmax: 5280 ng/mL
  MRT inf: 1.17 h
[1]; male, Sprague-Dawley, plasma, IV 2 mg/kg single dose, read-out: Vz pred
  Vd: 0.57 L/kg
[1]; [3]
  AUC(0-t): 21100 ng·h/mL
  Cmax: 2580 ng/mL
  MRT inf: 5.13 h
[1]; IV 2 mg/kg single dose
  Cl pred: 0.37
[1]; PO 20 mg/kg single dose
  Cl pred: 0.96
  Vz pred: 2.56 L/kg
[1]
  F (oral availability): 38.70%
[1]; oral administration
  metabolic parameters (Cmax, AUClast, F %) compared with ABL-001: better metabolic parameters

## O=C(Nc1ccc(OC(F)(F)Cl)cc1)c1cnc(N2CC[C@@H](O)C2)c(-c2ccns2)c1 [Example 3, (R)-6-(3-hydroxypyrrolidin-1-yl)-5-(isothiazol-5-yl)-N-(4-(chlorodifluoromethoxy)phenyl) nicotinamide]
Ba/F3 parent cells; Mus musculus, BaF3, 72 h
  IC50: > 1 µM

## O=C(Nc1ccc(OC(F)(F)Cl)cc1)c1cnc(N2CC[C@@H](O)C2)c(-c2cnn[nH]2)c1 [Example 4, (R)-6-(3-hydroxypyrrolidin-1-yl)-5-(1H-1,2,3-triazol-5-yl)-N-(4-(chlorodifluoromethoxy)phenyl)nicotinamide]
Ba/F3 parent cells; Mus musculus, BaF3, 72 h
  IC50: > 1 µM

## O=C(Nc1ccc(OC(F)(F)Cl)cc1)c1cnc(N2CC[C@@H](O)C2)c(-c2nnn[nH]2)c1 [Example 5, (R)-6-(3-hydroxypyrrolidin-1-yl)-5-(1H-1,2,34-tetrazol-5-yl)-N-(4-(chlorodifluoromethoxy)phenyl)nicotinamide]
Ba/F3 parent cells
  IC50: > 1 µM

## O=C(Nc1ccc(OC(F)(F)Cl)cc1)c1cnc(N2CC[C@@H](O)C2)c(-c2ncns2)c1 [Example 6]
Ba/F3 parent cells; Mus musculus, BaF3, 72 h
  IC50: > 1 µM

## Cc1ccc(NC(=O)c2ccc(CN3CCN(C)CC3)cc2)cc1Nc1nccc(-c2cccnc2)n1 [Imatinib]
Ebola virus
  release of Ebola viral particles from infected cells: stop the release of Ebola viral particles

## Cc1cn(-c2cc(NC(=O)c3ccc(C)c(Nc4nccc(-c5cccnc5)n4)c3)cc(C(F)(F)F)c2)cn1 [nilotinib]
Ebola virus
  release of Ebola viral particles from infected cells: stop the release of Ebola viral particles
